Patent publication US20220144823A1, “PYRAZOLOPYRIDINE DERIVATIVES AS INHIBITORS OF PASK” (Galapagos NV, priority 2019, published 2022)

Key:
[1] = target: T1, human PASK (Homo sapiens, UniProt Q96RG2); test: ADP-Glo kinase assay; assay type: biochemical; details: ADPGlo PASK kinase assay, 25 μM ATP, ZIPtide 25 μM
T1 construct: purchased ThermoFisher Scientific PR7013A
Procedure: The ADP-Glo™ kinase assay is a luminescent technology assay which measures the ADP formed from a kinase reaction. In this specific study, the kinase reactions consisted of the phosphorylation of the ZIPtide peptide substrate by human recombinant PASK. In a second step the kinase reaction is terminated and all the remaining ATP is depleted. In a final step the ADP is converted into ATP and this newly synthesized ATP is measured by using a luciferase/luciferin reaction. The generated light is measured using an Envision plate reader, wherein the luminescent signal obtained positively correlates with the kinase activity.
The test compounds are prepared as a serial dilution of 10 point dose responses with 1/5 dilution steps in 100% DMSO starting from 2 mM highest concentration, diluted 1/20 in water and 1 μL is transferred to the assay plates (PerkinElmer Inc., Cat #6007290).
1% DMSO and 10 μM staurosporine final concentrations are used respectively as negative and positive controls.
2 μL enzyme-substrate mixture is added to the assay plates.
The reaction is started by adding 2 μL diluted ATP on the assay plates immediately after addition of the enzyme-substrate mixture to the compound. Plates are centrifuged for a few seconds at 1000 rpm and gently shaken for 2 min followed by an incubation at RT for 120 min.
The reactions are stopped and the unconsumed ATP is depleted by adding 5 μL ADP-Glo Reagent (Promega, Cat #V912B) to the reaction. The plates are centrifuged for a few seconds at 1000 rpm and incubated at RT for 40 min (ATP depletion).
The ADP is converted to ATP and luciferase and luciferin is introduced to detect ATP by adding 10 μL Kinase Detection Reagent (Promega, Cat #V913B+V914B) to the reaction. The plates are centrifuged for a few seconds at 1000 rpm and incubated at RT for 30 min (ADP detection).
Luminescence is measured on an Envision plate reader (PerkinElmer Inc.).
Raw data are generated following the read-out performed on the Envision plate reader, used to calculate percentage inhibition (PIN) values and plotted to generate dose response curves and derive the average half maximal inhibitory concentrations (IC50) reported in Table VIII.

[2] = test system: diabetic non human primates (NHPs) under a high-calorie diet (HCD); test: Diabetic monkey model;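 also: male obese diabetic cynomolgus monkeys fed a high-fat, high-fructose diet, randomized into 4 groups, dosed with test compound for 8 weeks, then a 4-week washout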
Procedure: The aim of this assay is to determine the effect of a test compound on lipid metabolism and glucose handling in diabetic non human primates (NHPs) under a high-calorie diet (HCD) consisting of high-fat and high-fructose.
Male obese diabetic cynomolgus monkeys were selected based on their body weights, glucose, insulin levels, and blood lipid parameters. The inclusion criteria were the following: age ≤22 years; fasted plasma glucose between 120 and 300 mg/dL; triglycerides >125 mg/dL, and insulin >75 mIU/mL.
The animals are maintained at 20-23° C. and 40-70% humidity on a 12 h light/dark cycle (7 AM-7 PM). Water is provided ad libitum and the animals are fed twice daily with the high-calorie diet (HCD) enriched with seasonal fruits or vegetables.
After the baseline period, animals were randomized into 4 groups according to body weight, as well as their blood glucose and lipid parameters.
The following parameters were measured once per week during the 8 weeks of treatment and also during the 4 weeks of washout: • body weight • food consumption • blood chemistry (fasted blood glucose, plasma triglycerides, plasma total cholesterol, low density lipoproteins (LDL), and high density lipoproteins (HDL))
Oral glucose tolerance was measured in fasted animals before treatment initiation (baseline), at the end of the treatment period (week 8), and after 4 weeks of washout (week 12).

[3] = week 1, treatment, metformin 25 mg/kg b.i.d., Cpd 18 30 mg/kg q.d., p.o.
[4] = week 2, treatment, metformin 25 mg/kg b.i.d., Cpd 18 30 mg/kg q.d., p.o.
[5] = week 3, treatment, metformin 25 mg/kg b.i.d., Cpd 18 30 mg/kg q.d., p.o.
[6] = week 4, treatment, metformin 25 mg/kg b.i.d., Cpd 18 30 mg/kg q.d., p.o.
[7] = week 9, washout without treatment
[8] = week 10, washout without treatment
[9] = week 11, washout without treatment
[10] = week 12, washout without treatment

T1 sequence (Q96RG2 whole entry): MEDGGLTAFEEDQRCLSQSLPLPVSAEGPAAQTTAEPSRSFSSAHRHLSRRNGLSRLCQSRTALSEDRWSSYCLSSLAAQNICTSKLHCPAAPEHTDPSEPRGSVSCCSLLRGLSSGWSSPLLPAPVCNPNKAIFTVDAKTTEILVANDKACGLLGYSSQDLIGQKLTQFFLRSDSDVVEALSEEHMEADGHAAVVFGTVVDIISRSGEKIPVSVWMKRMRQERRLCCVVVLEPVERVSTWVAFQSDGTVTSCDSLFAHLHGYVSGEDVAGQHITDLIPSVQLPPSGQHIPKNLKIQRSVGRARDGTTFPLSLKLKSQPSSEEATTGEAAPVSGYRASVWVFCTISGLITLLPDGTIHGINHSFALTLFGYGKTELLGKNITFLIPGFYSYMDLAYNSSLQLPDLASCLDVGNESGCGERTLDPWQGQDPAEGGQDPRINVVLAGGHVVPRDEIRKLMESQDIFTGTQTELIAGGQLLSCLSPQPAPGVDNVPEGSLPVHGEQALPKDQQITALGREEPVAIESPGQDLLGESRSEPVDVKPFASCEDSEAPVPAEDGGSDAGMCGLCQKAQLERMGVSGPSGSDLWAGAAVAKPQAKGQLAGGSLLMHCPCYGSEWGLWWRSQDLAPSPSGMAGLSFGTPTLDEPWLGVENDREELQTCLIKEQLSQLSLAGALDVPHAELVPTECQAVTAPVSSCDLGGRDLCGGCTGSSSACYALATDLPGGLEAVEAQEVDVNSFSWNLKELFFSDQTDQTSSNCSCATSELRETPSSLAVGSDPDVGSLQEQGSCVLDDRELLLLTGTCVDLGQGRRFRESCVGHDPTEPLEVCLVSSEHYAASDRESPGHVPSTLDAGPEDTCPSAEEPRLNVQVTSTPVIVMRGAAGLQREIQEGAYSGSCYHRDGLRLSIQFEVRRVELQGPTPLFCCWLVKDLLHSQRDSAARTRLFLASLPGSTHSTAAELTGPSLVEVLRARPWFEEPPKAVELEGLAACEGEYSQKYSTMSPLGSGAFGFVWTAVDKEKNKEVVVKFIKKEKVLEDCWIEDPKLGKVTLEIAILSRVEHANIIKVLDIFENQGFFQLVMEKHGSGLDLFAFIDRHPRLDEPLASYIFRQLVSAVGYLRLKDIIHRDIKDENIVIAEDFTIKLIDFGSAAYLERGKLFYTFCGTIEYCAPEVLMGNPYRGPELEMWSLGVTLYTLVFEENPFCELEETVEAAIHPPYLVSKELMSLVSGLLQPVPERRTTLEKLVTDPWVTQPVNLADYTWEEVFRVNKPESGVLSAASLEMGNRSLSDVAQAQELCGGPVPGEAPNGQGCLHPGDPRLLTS

Row | Compound | IC50 [1] | further results
1 | COc1nn(-c2ccn3ncc(-c4c(C)noc4C)c3c2)cc1C(=O)O [Cpd 63, 1-[3-(3,5-dimethylisoxazol-4-yl)pyrazolo[1,5-a]pyridin-5-yl]-3-methoxy-pyrazole-4-carboxylic acid] | 10 to 100 nM | 
2 | Cc1nn(CC(F)(F)F)c(C)c1-c1cnn2ccc(-c3cc(C(=O)O)c(C4CCOCC4)o3)cc12 [Cpd 55, 5-[3-[3,5-dimethyl-1-(2,2,2-trifluoroethyl)pyrazol-4-yl]pyrazolo[1,5-a]pyridin-5-yl]-2-tetrahydropyran-4-yl-furan-3-carboxylic acid] | 0.01 to 10 nM | 
3 | Cc1nn(C(C)C)c(C)c1-c1cnn2ccc(-c3ccc(C(=O)O)o3)cc12 [Cpd 48, 5-[3-(1-isopropyl-3,5-dimethyl-pyrazol-4-yl)pyrazolo[1,5-a]pyridin-5-yl]furan-2-carboxylic acid] | 0.01 to 10 nM | 
4 | Cc1c(-c2cnn3ccc(-c4cc(C(=O)O)co4)cc23)cnn1C [Cpd 12, 5-[3-(1,5-dimethylpyrazol-4-yl)pyrazolo[1,5-a]pyridin-5-yl]furan-3-carboxylic acid] | 0.01 to 10 nM | 
5 | Cc1nn(C(F)F)c(C)c1-c1cnn2ccc(-c3cc(C(=O)O)c(C4=CCOCC4)o3)cc12 [Cpd 54, 5-[3-[1-(difluoromethyl)-3,5-dimethyl-pyrazol-4-yl]pyrazolo[1,5-a]pyridin-5-yl]-2-(3,6-dihydro-2H-pyran-4-yl)furan-3-carboxylic acid] | 0.01 to 10 nM | 
6 | Cc1nn(C(F)F)c(C)c1-c1cnn2ccc(-c3ccc(C(=O)O)o3)cc12 [Cpd 51, 5-[3-[1-(difluoromethyl)-3,5-dimethyl-pyrazol-4-yl]pyrazolo[1,5-a]pyridin-5-yl]furan-2-carboxylic acid] | 0.01 to 10 nM | 
7 | CN(C)C(=N)N=C(N)N [metformin, reference compound] |  | Bodyweight change (% change from baseline) [2, 3]: 1.0%; HbA1c change (% change from baseline) [2, 3]: −2.8%; Bodyweight change (% change from baseline) [2, 4]: −0.7%; HbA1c change (% change from baseline) [2, 4]: −12.3%; Bodyweight change (% change from baseline) [2, 5]: −1.3%; HbA1c change (% change from baseline) [2, 5]: −17.2%; Bodyweight change (% change from baseline) [2, 6]: −5.2%; HbA1c change (% change from baseline) [2, 6]: −18.9%; Bodyweight change (% change from baseline) [2, 7]: −6.5%; HbA1c change (% change from baseline) [2, 7]: −24.1%; Bodyweight change (% change from baseline) [2, 8]: −7.3%; HbA1c change (% change from baseline) [2, 8]: −23.5%; Bodyweight change (% change from baseline) [2, 9]: −6.3%; HbA1c change (% change from baseline) [2, 9]: −30.1%; Bodyweight change (% change from baseline) [2, 10]: −6.1%; HbA1c change (% change from baseline) [2, 10]: −28.6%
8 | Cc1nn(CC(F)(F)F)c(C)c1-c1cnn2ccc(-c3cc(C(=O)O)c(C4=CCOCC4)o3)cc12 [Cpd 53, 2-(3,6-dihydro-2H-pyran-4-yl)-5-[3-[3,5-dimethyl-1-(2,2,2-trifluoroethyl)pyrazol-4-yl]pyrazolo[1,5-a]pyridin-5-yl]furan-3-carboxylic acid] | 0.01 to 10 nM | 
9 | Cn1cc(-c2cnn3ccc(-c4cc(C(=O)O)co4)cc23)c(C(F)(F)F)n1 [Cpd 10, 5-[3-[1-methyl-3-(trifluoromethyl)pyrazol-4-yl]pyrazolo[1,5-a]pyridin-5-yl]furan-3-carboxylic acid] | 0.01 to 10 nM | 
10 | COc1nn(-c2ccn3ncc(-c4c(C)nn(C(F)F)c4C)c3c2)cc1C(N)=O [Cpd 83, 1-[3-[1-(difluoromethyl)-3,5-dimethyl-pyrazol-4-yl]pyrazolo[1,5-a]pyridin-5-yl]-3-methoxy-pyrazole-4-carboxamide] | 0.01 to 10 nM | 
11 | Cc1nn(C(C)C)c(C)c1-c1cnn2ccc(-n3cc(C(=O)O)c(C(F)(F)F)n3)cc12 [Cpd 80, 1-[3-(1-isopropyl-3,5-dimethyl-pyrazol-4-yl)pyrazolo[1,5-a]pyridin-5-yl]-3-(trifluoromethyl)pyrazole-4-carboxylic acid] | 10 to 100 nM | 
12 | Cc1nn(C(F)F)c(C)c1-c1cnn2ccc(-c3ncc(C(=O)O)o3)cc12 [Cpd 49, 2-[3-[1-(difluoromethyl)-3,5-dimethyl-pyrazol-4-yl]pyrazolo[1,5-a]pyridin-5-yl]oxazole-5-carboxylic acid] | 0.01 to 10 nM | 
13 | Cc1nn(C(C)C)c(C)c1-c1cnn2ccc(-n3cc(C(=O)O)cn3)cc12 [Cpd 52, 1-[3-(1-isopropyl-3,5-dimethyl-pyrazol-4-yl)pyrazolo[1,5-a]pyridin-5-yl]pyrazole-4-carboxylic acid] | 0.01 to 10 nM | 
14 | Cc1c(-c2cnn3ccc(-c4nc(C(=O)O)co4)cc23)c(C(F)(F)F)nn1C [Cpd 57, 2-[3-[1,5-dimethyl-3-(trifluoromethyl)pyrazol-4-yl]pyrazolo[1,5-a]pyridin-5-yl]oxazole-4-carboxylic acid] | 0.01 to 10 nM | 
15 | Cc1noc(C)c1-c1cnn2ccc(-n3cc(C(=O)O)cn3)cc12 [Cpd 47, 1-[3-(3,5-dimethylisoxazol-4-yl)pyrazolo[1,5-a]pyridin-5-yl]pyrazole-4-carboxylic acid] | 10 to 100 nM | 
16 | Cc1nn(CC(F)(F)F)c(C)c1-c1cnn2ccc(-n3cc(C(=O)O)c(C(F)(F)F)n3)cc12 [Cpd 81, 1-[3-[3,5-dimethyl-1-(2,2,2-trifluoroethyl)pyrazol-4-yl]pyrazolo[1,5-a]pyridin-5-yl]-3-(trifluoromethyl)pyrazole-4-carboxylic acid] | 0.01 to 10 nM | 

Continued, in another order:

Row | IC50 [1] | Compound | further results
17 | 0.01 to 10 nM | COCCOc1nc(-c2ccn3ncc(-c4c(C)noc4C)c3c2)sc1C(=O)O [Cpd 59, 2-[3-(3,5-dimethylisoxazol-4-yl)pyrazolo[1,5-a]pyridin-5-yl]-4-(2-methoxyethoxy) thiazole-5-carboxylic acid] | 
18 | 0.01 to 10 nM | Cc1noc(C)c1-c1cnn2ccc(-c3nc(OC4COC4)c(C(=O)O)s3)cc12 [Cpd 58, 2-[3-(3,5-dimethylisoxazol-4-yl)pyrazolo[1,5-a]pyridin-5-yl]-4-(oxetan-3-yloxy) thiazole-5-carboxylic acid] | 
19 | 0.01 to 10 nM | Cc1noc(C)c1-c1cnn2ccc(-c3nc(OC(F)F)c(C(=O)O)s3)cc12 [Cpd 61, 4-(difluoromethoxy)-2-[3-(3,5-dimethylisoxazol-4-yl)pyrazolo[1,5-a]pyridin-5-yl]thiazole-5-carboxylic acid] | 
20 | 0.01 to 10 nM | Cc1noc(C)c1-c1cnn2ccc(-c3nc(OC(C)C)c(C(=O)O)s3)cc12 [Cpd 56, 2-[3-(3,5-dimethylisoxazol-4-yl)pyrazolo[1,5-a]pyridin-5-yl]-4-isopropoxy-thiazole-5-carboxylic acid] | 
21 | 0.01 to 10 nM | Cc1nn(C)c(C)c1-c1cnn2ccc(-n3cc(C(=O)O)cn3)cc12 [Cpd 73, 1-[3-(1,3,5-trimethylpyrazol-4-yl)pyrazolo[1,5-a]pyridin-5-yl]pyrazole-4-carboxylic acid] | 
22 | 100 to 500 nM | CCOC(=O)c1sc(-c2ccn3ncc(-c4c(C)nn(C)c4C)c3c2)nc1OC [Cpd 87, ethyl 4-methoxy-2-[3-(1,3,5-trimethylpyrazol-4-yl)pyrazolo[1,5-a]pyridin-5-yl]thiazole-5-carboxylate] | 
23 | 100 to 500 nM | Cc1nn(C)c(C)c1-c1cnn2ccc(-c3cc(C(=O)OCOC(=O)C(C)(C)C)co3)cc12 [Cpd 13, 2,2-dimethylpropanoyloxymethyl 5-[3-(1,3,5-trimethylpyrazol-4-yl)pyrazolo[1,5-a]pyridin-5-yl]furan-3-carboxylate] | 
24 | 100 to 500 nM | CCOC(=O)c1sc(-c2ccn3ncc(-c4c(C)nn(C)c4C)c3c2)nc1OCC [Cpd 88, ethyl 4-ethoxy-2-[3-(1,3,5-trimethylpyrazol-4-yl)pyrazolo[1,5-a]pyridin-5-yl]thiazole-5-carboxylate] | 
25 | 0.01 to 10 nM | CCn1nc(C)c(-c2cnn3ccc(-n4cc(C(=O)O)c(OC)n4)cc23)c1C [Cpd 75, 1-[3-(1-ethyl-3,5-dimethyl-pyrazol-4-yl)pyrazolo[1,5-a]pyridin-5-yl]-3-methoxy-pyrazole-4-carboxylic acid] | 
26 | 0.01 to 10 nM | CCOCCOc1nc(-c2ccn3ncc(-c4c(C)noc4C)c3c2)sc1C(=O)O [Cpd 60, 2-[3-(3,5-dimethylisoxazol-4-yl)pyrazolo[1,5-a]pyridin-5-yl]-4-(2-ethoxyethoxy) thiazole-5-carboxylic acid] | 
